For test [1], the target named is human CGAS (157-522) (Homo sapiens, UniProt Q8N884). The test can be described thus: biochemical.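 Further: biochemical enzyme reaction, 2′3′-cGAMP product measured by RapidFire mass spectrometry (MRM) normalised to c-di-UMP internal standard, inhibition of product formation relative to high and low control wells.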
Procedure: Compounds were serially diluted 2, 3, or 4-fold in neat DMSO to generate 11-point dose response curves and then 250 nL compound or DMSO solution was transferred to Greiner 384-well V-bottom assay plates (Catalog #781280) using an Echo acoustic dispenser (Labcyte). A solution of 150 μM ATP, 150 μM GTP, 20 μM pppGpA (GTP-2′5′-AMP, custom synthesis from ChemGenes), and 10 μg/mL sheared salmon sperm DNA (Sigma, Catalog #D1626) in assay buffer (20 mM Trizma, pH 7.5, 10 mM magnesium chloride, 0.3 mM CHAPS, and 0.01% (w/v) bovine serum albumin) was added to columns 1-17, 19-24 of the plate at 12.5 μL/well using a Combi liquid handler (ThermoFisher). A 12.5 μL/well low control solution containing 150 μM ATP, 150 μM GTP, 20 μM pppGpA in assay buffer was added to column 18 using the Combi. A 12.5 μL/well solution of 10-100 nM human CGAS (157-522) in assay buffer was then added to all wells of the plate using the Combi. […] Reactions were quenched by added 50 μL/well of 0.5% (v/v) trifluoroacetic acid (TFA) in mass spectrometry grade deionized water containing 5 μM cyclic-di-UMP (ci-di-UMP; Invivogen Catalog #tlrl-cdu) as the internal standard (IS). Plates were centrifuged for 1 min and then quenched reactions were analyzed using a RF-MS 300 system operating in a Multiple Reaction Monitoring (MRM) detection mode.
Samples (10 μL injection volume) were passed over a silica C18/type C solid phase extraction (SPE) cartridge for analyte (2′3′-cyclic guanosine monophosphate adenosine monophosphate (2′3′-cGAMP), product of biochemical reaction)/pppGpA/c-di-UMP IS adsorption. Adsorbed samples were desalted for 3000 ms using a 100% water eluent A/desalting solution. Afterwards, desalted samples were eluted using a 0.5% TFA in 20%/80% acetonitrile/water eluent B/elution solution directly into either a Sciex 4000, 5000 or 5500 triple quadrupole mass spectrometer (QQQ-MS) for MRM analyte/IS detection. QQQ-MS detection conditions were as follow: scan type: MRM; curtain (CUR) gas: 30 psi; nebulizer (GS1) gas: 50 psi; drying (GS2) gas: 60 psi; collisionally activated dissociation (CAD) gas: 12 relative setting; precursor ion (Q1) masses: 2′3′-cGAMP: m/z 675.1 Da/pppGpA: m/z 853.0 Da/c-di-UMP: m/z 613.1 Da; fragment ion (Q3) masses: 2′3′-cGAMP: m/z 524.1 Da/pppGpA: m/z 702.0 Da/c-di-UMP: 307.1 Da; declustering potentials (DPs): 2′3′-cGAMP: +81 V/pppGpA: +85 V/c-di-UMP: +85 V; entrance potential: +10 V (all analytes); collision energies (CEs): 2′3′-cGAMP: +33 V/pppGpA: +36 V/c-di-UMP: +35 V; collision cell exit potential (CXP): +10 V (all analytes); interface heater (Sciex 4000/5000 only): on; Q1 resolution: unit (all analyte); Q3 resolution: unit (all analytes). The area under the curve (AUC) for all analytes was obtained using the RapidFire Integrator software application to calculate AUC-2′3′-cGAMP/AUC-c-di-UMP intensity ratio. Percent product formation was calculated by comparison to column 6 (high control)/column 18 (low control) responses. The % product inhibition was calculated as follows:
[formula] where A is the minimum response, B is the maximum response, C is the log10*XC50, D is the slope factor, and x is the log10 compound concentration [M] in ABASE XE.
For test [2], the system named is CGAS. The test can be described thus: CGAS whole blood cytokine release assay (384-well, BacMam stimulation, IP-10 by cytometric bead array). It is filed as cell-based. The following applies: Homo sapiens, 6 h; read-out: hWB pXC50 (converted). Summed up:
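Heparinised human donor whole blood mixed with serially diluted compound plus Null BacMam stimulus, incubated 6 h at 37° C, 5% CO2. Supernatant IP-10 quantified by cytometric bead array on flow cytometer (488 nm excitation, 585/40 nm emission); inhibition of IP-10 calculated.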

From US12247033B2, “Triazole-substituted imidazo[1,2-a]pyrimidines as cGAS inhibitors” (GlaxoSmithKline Intellectual Property Development Limited, priority 2022, dated 2025) come the findings set out here.

Sequence of human CGAS (157-522) (Q8N884 157-522): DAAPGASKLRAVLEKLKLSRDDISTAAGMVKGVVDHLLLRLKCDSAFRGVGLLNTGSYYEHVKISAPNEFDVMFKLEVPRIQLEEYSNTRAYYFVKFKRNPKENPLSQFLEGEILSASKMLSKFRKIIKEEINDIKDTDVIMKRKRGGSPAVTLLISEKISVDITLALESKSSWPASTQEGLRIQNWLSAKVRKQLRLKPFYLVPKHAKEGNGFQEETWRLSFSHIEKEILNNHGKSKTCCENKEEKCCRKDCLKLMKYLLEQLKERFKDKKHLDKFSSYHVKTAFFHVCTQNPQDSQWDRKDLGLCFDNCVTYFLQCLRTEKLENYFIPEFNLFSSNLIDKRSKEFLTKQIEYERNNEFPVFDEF

As for `FC(F)(F)c1n[nH]c(-c2nc3ncc(C4CCCO4)cn3c2-c2cnc[nH]2)n1` (stereo not drawn) [Example 82, 5-[3-(1H-imidazol-5-yl)-6-(oxolan-2-yl)imidazo[1,2-a]pyrimidin-2-yl]-3-(trifluoromethyl)-1H-1,2,4-triazole], the IC50 was 5.01 nM in test [1] and 200 nM in test [2].
For the compound `FC(F)(F)c1n[nH]c(-c2nc3nc4c(cn3c2-c2cnc[nH]2)CNCC4(F)F)n1` [Example 83, 13,13-difluoro-6-(1H-imidazol-5-yl)-5-[3-(trifluoromethyl)-1H-1,2,4-triazol-5-yl]-2,4,7,11-tetraazatricyclo[7.4.0.0^3,^7]trideca-1,3,5,8-tetraene], the IC50 in test [1] is 7.94 nM; in test [2], 316 nM.
The matching figures for `CC(=O)OCn1cnc(-c2c(-c3nc(C(F)(F)F)nn3COC(C)=O)nc3ncccn23)c1` [Example 84, [5-(3-{1-[(acetyloxy)methyl]-1H-imidazol-4-yl}imidazo[1,2-a]pyrimidin-2-yl)-3-(trifluoromethyl)-1H-1,2,4-triazol-1-yl]methyl acetate]: 15800 nM and 158 nM.
For `COCc1cnc2nc(-c3nc(C(F)F)n[nH]3)c(-c3cnc[nH]3)n2c1` [Example 86, 3-(difluoromethyl)-5-[3-(1H-imidazol-5-yl)-6-(methoxymethyl)imidazo[1,2-a]pyrimidin-2-yl]-1H-1,2,4-triazole], the IC50 in test [1] is 3.98 nM; in test [2], 50.1 nM.
With `CC(=O)N1Cc2cn3c(-c4cnc[nH]4)c(-c4nc(C(F)(F)F)n[nH]4)nc3nc2C(F)(F)C1` [Example 87, 1-[13,13-difluoro-6-(1H-imidazol-5-yl)-5-[3-(trifluoromethyl)-1H-1,2,4-triazol-5-yl]-2,4,7,11-tetraazatricyclo[7.4.0.0^3,^7]trideca-1,3,5,8-tetraen-11-yl]ethan-1-one], the IC50 was 2000 nM in test [1] and greater than 31600 nM in test [2].
Consider `FC(F)c1n[nH]c(-c2nc3nc(C(F)(F)F)ccn3c2-c2cnc[nH]2)n1` [Example 88, 3-(difluoromethyl)-5-[3-(1H-imidazol-5-yl)-7-(trifluoromethyl)imidazo[1,2-a]pyrimidin-2-yl]-1H-1,2,4-triazole], for which the IC50 in test [1] is 5.01 nM; in test [2] it was 501 nM.
On the same counts, the results for `FC(F)(F)c1n[nH]c(-c2nc3ncc(Cc4ccccc4)cn3c2-c2cnc[nH]2)n1` [Example 89, 5-[6-benzyl-3-(1H-imidazol-5-yl)imidazo[1,2-a]pyrimidin-2-yl]-3-(trifluoromethyl)-1H-1,2,4-triazole] are 2.51 nM and 1580 nM.
Turning to `FC(F)c1n[nH]c(-c2nc3ncccn3c2-c2cn[nH]c2)n1` [Example 90, 3-(difluoromethyl)-5-[3-(1H-pyrazol-4-yl)imidazo[1,2-a]pyrimidin-2-yl]-1H-1,2,4-triazole], the IC50 in test [1] is 10 nM; in test [2], 1000 nM.
The matching figures for `FC(F)c1ccn2c(-c3cnc[nH]3)c(-c3nc(C(F)(F)F)n[nH]3)nc2n1` [Example 95, 5-[7-(difluoromethyl)-3-(1H-imidazol-5-yl)imidazo[1,2-a]pyrimidin-2-yl]-3-(trifluoromethyl)-1H-1,2,4-triazole]: 10 nM and 398 nM.
With `FC(F)(F)c1n[nH]c(-c2nc3nc4c(cn3c2-c2cnc[nH]2)CSCC4)n1` [Example 103, 6-(1H-imidazol-5-yl)-5-[3-(trifluoromethyl)-1H-1,2,4-triazol-5-yl]-11-thia-2,4,7-triazatricyclo[7.4.0.03,7]trideca-1,3,5,8-tetraene], the values for the IC50 in test [1] and in test [2] were 1.26 nM and 251 nM, respectively.
As for `O=S1(=O)CCc2nc3nc(-c4nc(C(F)(F)F)n[nH]4)c(-c4cnc[nH]4)n3cc2C1` [Example 104, 6-(1H-imidazol-5-yl)-5-[3-(trifluoromethyl)-1H-1,2,4-triazol-5-yl]-11λ^6-thia-2,4,7-triazatricyclo[7.4.0.0^3,^7]trideca-1,3,5,8-tetraene-11,11-dione], the IC50 in test [1] is 3.98 nM; in test [2], 6310 nM.
As for `N#CCCOCc1cnc2nc(-c3nc(C(F)(F)F)n[nH]3)c(-c3cnc[nH]3)n2c1` [Example 105, 3-{[3-(1H-imidazol-5-yl)-2-[3-(trifluoromethyl)-1H-1,2,4-triazol-5-yl]imidazo[1,2-a]pyrimidin-6-yl]methoxy}propanenitrile], the results for the IC50 in test [1] and in test [2] were 3.16 nM and 1000 nM, respectively.
The matching figures for `Nc1ccn2c(-c3cnc[nH]3)c(-c3nc(C(F)(F)F)n[nH]3)nc2n1` [Example 107, 3-(1H-imidazol-5-yl)-2-[3-(trifluoromethyl)-1H-1,2,4-triazol-5-yl]imidazo[1,2-a]pyrimidin-7-amine]: 2.51 nM and 631 nM.
Turning to `CC(C)(C)c1cnc2nc(-c3nc(C(F)(F)F)n[nH]3)c(-c3c[nH]cn3)n2c1` [Example 109, 5-[6-tert-butyl-3-(1H-imidazol-4-yl)imidazo[1,2-a]pyrimidin-2-yl]-3-(trifluoromethyl)-1H-1,2,4-triazole], the IC50 in test [1] was 5.01 nM; in test [2], 1260 nM.
The matching figures for `N#Cc1cnc2nc(-c3nc(C(F)(F)F)n[nH]3)c(-c3cnc[nH]3)n2c1` [Example 110, 3-(1H-imidazol-5-yl)-2-[3-(trifluoromethyl)-1H-1,2,4-triazol-5-yl]imidazo[1,2-a]pyrimidine-6-carbonitrile]: 50.1 nM and 398 nM.
For `FC(F)(F)COCc1cnc2nc(-c3nc(C(F)(F)F)n[nH]3)c(-c3cnc[nH]3)n2c1` [Example 111, 5-[3-(1H-imidazol-5-yl)-6-[(2,2,2-trifluoroethoxy)methyl]imidazo[1,2-a]pyrimidin-2-yl]-3-(trifluoromethyl)-1H-1,2,4-triazole], the IC50 was 3.98 nM in test [1] and 398 nM in test [2].
Regarding `COCc1cn2c(-c3cnc[nH]3)c(-c3nc(C(F)(F)F)n[nH]3)nc2nc1C(F)(F)F` [Example 114, 5-[3-(1H-imidazol-5-yl)-6-(methoxymethyl)-7-(trifluoromethyl)imidazo[1,2-a]pyrimidin-2-yl]-3-(trifluoromethyl)-1H-1,2,4-triazole], the IC50 was 3.98 nM in test [1] and 1000 nM in test [2].
On the same counts, the results for `CCOCc1cn2c(-c3cnc[nH]3)c(-c3nc(C(F)F)n[nH]3)nc2nc1C(F)(F)F` [Example 117, 3-(difluoromethyl)-5-[6-(ethoxymethyl)-3-(1H-imidazol-5-yl)-7-(trifluoromethyl)imidazo[1,2-a]pyrimidin-2-yl]-1H-1,2,4-triazole] are 6.31 nM and 3160 nM.
On the same counts, the results for `CC(NCc1ccn2c(-c3c[nH]cn3)c(-c3nc(C(F)(F)F)n[nH]3)nc2n1)C(F)(F)F` (stereo not drawn) [Example 118, {[3-(1H-imidazol-4-yl)-2-[3-(trifluoromethyl)-1H-1,2,4-triazol-5-yl]imidazo[1,2-a]pyrimidin-7-yl]methyl}(1,1,1-trifluoropropan-2-yl)amine] are 12.6 nM and 631 nM.
The matching figures for `FC(F)c1cnc2nc(-c3nc(C(F)(F)F)n[nH]3)c(-c3c[nH]cn3)n2c1` [Example 120, 5-[6-(difluoromethyl)-3-(1H-imidazol-4-yl)imidazo[1,2-a]pyrimidin-2-yl]-3-(trifluoromethyl)-1H-1,2,4-triazole]: 6.31 nM and 631 nM.
Take `COCc1cn2c(-c3cnc[nH]3)c(-c3nc(C(F)F)n[nH]3)nc2nc1C(F)(F)F` [Example 121, 3-(difluoromethyl)-5-[3-(1H-imidazol-5-yl)-6-(methoxymethyl)-7-(trifluoromethyl)imidazo[1,2-a]pyrimidin-2-yl]-1H-1,2,4-triazole]: the IC50 was 7.94 nM in test [1] and 1580 nM in test [2].
On the same counts, the results for `FC(F)(F)c1n[nH]c(-c2nc3ncc(COCC(F)(F)C(F)(F)C(F)(F)F)cn3c2-c2cnc[nH]2)n1` [Example 123, 5-{6-[(2,2,3,3,4,4,4-heptafluorobutoxy)methyl]-3-(1H-imidazol-5-yl)imidazo[1,2-a]pyrimidin-2-yl}-3-(trifluoromethyl)-1H-1,2,4-triazole] are 6.31 nM and 1260 nM.
The matching figures for `N#Cc1ccn2c(-c3c[nH]cn3)c(-c3nc(C(F)(F)F)n[nH]3)nc2n1` [Example 124, 3-(1H-imidazol-4-yl)-2-[3-(trifluoromethyl)-1H-1,2,4-triazol-5-yl]imidazo[1,2-a]pyrimidine-7-carbonitrile]: 6.31 nM and 158 nM.
`Fc1cn2c(-c3cnc[nH]3)c(-c3nc(C(F)(F)F)n[nH]3)nc2nc1C(F)(F)F` [Example 125, 5-[6-fluoro-3-(1H-imidazol-5-yl)-7-(trifluoromethyl)imidazo[1,2-a]pyrimidin-2-yl]-3-(trifluoromethyl)-1H-1,2,4-triazole]: the figures for the IC50 in test [1] and in test [2] were 15.8 nM and 3160 nM, respectively.
The matching figures for `FC(F)(F)c1n[nH]c(-c2nc3ncc(COCC4CCOC4)cn3c2-c2cnc[nH]2)n1` (stereo not drawn) [Example 126, 5-[3-(1H-imidazol-5-yl)-6-{[(oxolan-3-yl)methoxy]methyl}imidazo[1,2-a]pyrimidin-2-yl]-3-(trifluoromethyl)-1H-1,2,4-triazole]: 7.94 nM and 501 nM.
Regarding `COCC(C)COCc1cnc2nc(-c3nc(C(F)(F)F)n[nH]3)c(-c3cnc[nH]3)n2c1` (stereo not drawn) [Example 127, 5-[3-(1H-imidazol-5-yl)-6-[(3-methoxy-2-methylpropoxy)methyl]imidazo[1,2-a]pyrimidin-2-yl]-3-(trifluoromethyl)-1H-1,2,4-triazole], the IC50 in test [1] was 7.94 nM; in test [2], 251 nM.
The matching figures for `FC(F)(F)c1n[nH]c(-c2nc3nc(C(F)(F)F)c(Cl)cn3c2-c2cnc[nH]2)n1` [Example 128, 5-[6-chloro-3-(1H-imidazol-5-yl)-7-(trifluoromethyl)imidazo[1,2-a]pyrimidin-2-yl]-3-(trifluoromethyl)-1H-1,2,4-triazole]: 12.6 nM and 3160 nM.
